Laboratory results reported in patent US6455576B1, “Macrolides with anti-inflammatory activity” (Zambon Group S.p.A., priority 1999, dated 2002).
Read-outs that look alike come from different tables or passages of the source.

Columns and labels:
superoxide anion release = assay: In vitro inhibition of FMLP-stimulated superoxide anion release from neutrophils (Lucigenin-enhanced chemiluminescence); format: cell-based, human; settings: neutrophils of healthy volunteers, 30 minutes pre-incubation at 37° C., FLMP stimulation, read-out: O2 release IC50
Experimental: B) Release of Superoxide Anions
Neutrophils were separated from venous blood of healthy volunteers by centrifugation on Ficoll-Hypaque, followed by sedimentation on 6% dextrane and osmotic lysis of erythrocytes. Neutrophils were then washed and resuspended in a medium made of RPMI-1640 supplemented with 5% foetal calf serum and 1.34 mmoles/l of disodium dihydrate EDTA. The cells were maintained for 24 hours at 4° C. and before the test the suspension was centrifugated and resuspended in HBSS (Hanks' balanced salt solution). The vitality and the purity of the neutrophil preparation was verified by dyeing with Trypan blue and Turk blue.
The superoxide anions were measured by using Lucigenin (bis-N-methylacridinium nitrate)-enhanced chemiluminescence technique.
Neutrophils (2×10^6 cells/ml) were pre-incubated for 30 minutes at 37° C. in 900 µl of HBSS with and without the tested compound (reading system).
The production of superoxide anions was measured with a Lumac/3M bio-counter after addition of 100 µl of a solution in HBSS of Lucigenin (2 mmoles/l) and N-formyl-L-methionyl-L-leucyl-L-phenylalanine (FLMP) as stimulating agent at the concentration of […] to the reading system. FLMP was dissolved in DMSO (1×10^−2 M) and further diluted in HBSS. The compound to be tested was dissolved in DMSO at the concentration of 10^−2 M. Lower concentrations, in DMSO, were prepared from that solution, and tested. The DMSO amount present in the reading system was lower than 1%.
The luminosity values obtained at the peak, for each tested concentration of the compound, were transformed in inhibition percentage in comparison with the reference.
The concentration able to inhibit the production of superoxide anion at 50% (IC50) was calculated from the obtained “dose-response” curve.

IL-8 release = assay: In vitro inhibition of LPS-induced IL-8 release in ECV304 endothelial cells (ELISA); format: cell-based, human; settings: for IC50: 1 hour pre-incubation, supernatant after one night, concentration giving 50% of highest obtainable inhibition, read-out: IL-8 release potency IC50; for IL-8 release efficacy (%): highest obtainable inhibition
Experimental: A) Release of Interleukin 8 (IL-8)
A human endothelial immortalized cell line (ECV304) was obtained from ATTC (Rockville, Md.) and grown in Medium 199, mod. Earle's salts (GIBCO, Life Technologies, Grand Island, N.Y.), supplemented with 20% Fetal Calf Serum (GIBCO), 100 U/ml of penicillin and 100 µg/ml of streptomycin (SIGMA, St. Louis, Mo.) in wet atmosphere with 5% CO2 at 37° C.
The cells were cultivated on 96 well plates up to obtain a confluent monolayer. The compounds to be evaluated were dissolved in DMSO at 10^−2M and diluted with culture medium.
The compounds were pre-incubated with the cells 1 hour before the challenge.
The release of IL-8 was induced by adding 0.66 µg/ml of lipopolysaccharide B (E. coli 055:B5, Difco, Detroit, Mich.) in a final volume of 200 µl.
After one night, the supernatant was collected for the IL-8 test.
The specific immunoreactivity for IL-8 in the culture supernatant was measured with ELISA kit (Amersham, UK).
Results were expressed as the highest obtainable inhibition (efficacy) and, whether possible, as the concentration at which 50% of such effect (TC50) is obtained.

[1] = test system: neutrophilia induced by LPS; assay: In vivo inhibition of neutrophilia induced by LPS after repeated administrations (bronchoalveolar lavage); design: species or system rat; settings: Sprague-Dawley rats, compound i.p. twice a day for 6 days and 7th day 1 hour before and 5 hours after LPS 6 mg/kg i.p.; BALF 24 hours after LPS
Experimental: In vivo Pharmacological Activity
Male Sprague-Dawley rats weighing between 200 and 300 g were used.
The rats used in the experiments were not evidently infected. The animals were maintained in standard conditions for 7 days before being sacrificed.
LPS (E. coli lipopolisaccharide) (endotoxin; 055:B5 serum-type; Sigma Chemical Co., St. Louis, Mo.) was dissolved in saline sterile solution and was administered by intraperitoneal injection (i.p.) at a dose of 6 mg/kg (1 ml/kg). Analogously the saline solution and/or the carrier (saline solution+0.5% Tween 20) were injected into the control animals.
Compound Administration (Prophylactic Treatment)
Each compound was administered by i.p. injection twice a day for 6 days, the 7th day 1 hour before and 5 hours after LPS administration. The compounds were suspended with 0.5% Tween 20 in the saline solution.
After 24 hours from the LPS injection rats were sacrificed with an overdose of nembutal (100 mg/kg i.p.). The trachea was incannulated and the lung was washed by instilling two 5 ml aliquots of PBS (phosphate buffer saline) at 37° C. and the fluid was immediately removed. The fluid was again injected and the procedure was altogether repeated three times for each aliquot.
Cell Counting and Differentiation
200 μl of BALF (bronchoalveolar lavage fluid) were diluted in 1 ml of cold water and 19 ml of Isoton. The overall number of cells was counted twice by using Contraves autolyser 800. When the total number was lower than 2000, BALFs were centrifugated at 800 rpm for 10 minutes in order to separate the cells from the supernatant. The supernatants were discharged and the cells resuspended in a small amount of PBS. For the cytological evaluation, 50 μl of the solution with the resuspended cells were centrifugated for 1 minute at 1300 rpm by using a Shandon Cytospin centrifuge. The slides were fixed in acetone and dyed with DiffQuick. The differential counts of cells were performed on each slide by counting 200 cells at random; cellular types were classified as neutrophils, eosinophils and mononuclear cells according to morphological standard criteria.

[2] = Homo sapiens, ECV-304, LPS 0.66 μg/ml

Compound	IC50 (superoxide anion release) [µM]	IC50 (IL-8 release; LPS 0.66 μg/ml) [µM]	IL-8 release efficacy (%) (IL-8 release; LPS 0.66 μg/ml)	Inhibition (%) [1] [%]	IC50 (superoxide anion release; Homo sapiens, Neutrophil) [µM]	IC50 (IL-8 release; [2]) [µM]
3′-de(dimethylamino)-erythromycin A (E)-9-O-[2-methoxy-ethoxy]-methyl]-oxime] [Compound 5]	> 100	12	55 ± 0.9			
3′-de(dimethylamino)-erythromycin A (E)-9-[O-[2-[6-[(thiazol-2-ylmethyl)-amino]-hexyl-amino]-ethyl]-oxime] [Compound 8]	3.5 ± 0.2		19 ± 1			
3′-de(dimethylamino)-erythromycin A (E)-9-[O-[2-[(6-amino-hexyl)-amino]-ethyl]-oxime] [Compound 6]	9.9 ± 0.69	7.7 ± 0.3	37 ± 10	−11		
3′-de(dimethylamino)erythromycin A (E)-9-[O-[2-[6-(benzylamino)-hexylamino]-ethyl]-oxime] [Compound 9]	3.5 ± 0.5			−96		
CCC1OC(=O)C(C)C(OC2CC(C)(OC)C(O)C(C)O2)C(C)C(OC2OC(C)C=CC2O)C(C)(O)CC(C)C(=NO)C(C)C(O)C1(C)O (stereo not shown) [Compound 1, 3′-de(dimethylamino)-3′,4′-dehydro-erythromycin A Oxime]	35.3 ± 5.4		29			
CC[C@H]1OC(=O)[C@H](C)[C@@H](O[C@H]2C[C@@](C)(OC)[C@@H](O)[C@H](C)O2)[C@H](C)[C@@H](O[C@@H]2O[C@H](C)CC[C@H]2O)[C@](C)(O)C[C@@H](C)C(=NO)[C@H](C)[C@@H](O)[C@]1(C)O [Compound 2, 3′-de(dimethylamino)-erythromycin A Oxime]	11.4 ± 2.9		29	−31		
CCC1OC(=O)C(C)C(OC2CC(C)(OC)C(O)C(C)O2)C(C)C(OC2OC(C)CCC2O)C(C)(O)CC(C)C(=NOCCOCCNCc2ccccc2)C(C)C(O)C1(C)O (stereo not shown) [Compound 11, 3′-de(dimethylamino)-erythromycin A (E)-9-[O-[2-[2-(benzylaminol)-ethoxy]-ethyl]-oxime]]	5		22 ± 4			
CCC1OC(=O)C(C)C(OC2CC(C)(OC)C(O)C(C)O2)C(C)C(OC2OC(C)CCC2O)C(C)(O)CC(C)C(=NOCCNCCNCc2nccs2)C(C)C(O)C1(C)O (stereo not shown) [Compound 16, 3′-de(dimethylamino)-erythromycin A (E)-9-[O-[2-[2-[(thiazol-2-ylmethyl)-amino]-ethyl-amino]-ethyl]-oxime]]	14.3		35			
CC[C@H]1OC(=O)[C@H](C)[C@@H](O[C@H]2C[C@@](C)(OC)[C@@H](O)[C@H](C)O2)[C@H](C)[C@@H](O[C@@H]2O[C@H](C)C[C@H](N(C)C)[C@H]2O)[C@](C)(OC)C[C@@H](C)C(=O)[C@H](C)[C@@H](O)[C@]1(C)O [clarithromycin, reference compound]			48 ± 6	−47	49.2 ± 1.9	8.9 ± 3.2
CC[C@H]1OC(=O)[C@H](C)[C@@H](O[C@H]2C[C@@](C)(OC)[C@@H](O)[C@H](C)O2)[C@H](C)[C@@H](O[C@@H]2O[C@H](C)C[C@H](N(C)C)[C@H]2O)[C@](C)(O)C[C@@H](C)C(=O)[C@H](C)[C@@H](O)[C@]1(C)O [erythromycin, reference compound]			27 ± 1	−46	> 100	
CC[C@H]1OC(=O)[C@H](C)[C@@H](O[C@H]2C[C@@](C)(OC)[C@@H](O)[C@H](C)O2)[C@H](C)[C@@H](O[C@@H]2O[C@H](C)C[C@H](N(C)C)[C@H]2O)[C@](C)(O)C[C@@H](C)/C(=N\OCOCCOC)[C@H](C)[C@@H](O)[C@]1(C)O [roxithromycin, reference compound]			43 ± 6	−50	89 ± 5	5.5 ± 1.5
